Experiments:
JAK1 = biological target: T1, JAK1 (Homo sapiens, UniProt P23458); assay: Probe-based (AX9989) kinase profiling in Jurkat lysate: JAK1; assay type: binding; conditions: read-out: Kinase inhibition % at indicated screening concentration: JAK1; for inhibition at 1 µM: screening concentration 1.0 μM; for inhibition at 0.1 µM: screening concentration 0.1 μM
T1 construct: screened for activity against several kinases in Jurkat cells; endogenous in cells; host or cells: Jurkat cell lysate
T1 sequence (P23458 whole entry): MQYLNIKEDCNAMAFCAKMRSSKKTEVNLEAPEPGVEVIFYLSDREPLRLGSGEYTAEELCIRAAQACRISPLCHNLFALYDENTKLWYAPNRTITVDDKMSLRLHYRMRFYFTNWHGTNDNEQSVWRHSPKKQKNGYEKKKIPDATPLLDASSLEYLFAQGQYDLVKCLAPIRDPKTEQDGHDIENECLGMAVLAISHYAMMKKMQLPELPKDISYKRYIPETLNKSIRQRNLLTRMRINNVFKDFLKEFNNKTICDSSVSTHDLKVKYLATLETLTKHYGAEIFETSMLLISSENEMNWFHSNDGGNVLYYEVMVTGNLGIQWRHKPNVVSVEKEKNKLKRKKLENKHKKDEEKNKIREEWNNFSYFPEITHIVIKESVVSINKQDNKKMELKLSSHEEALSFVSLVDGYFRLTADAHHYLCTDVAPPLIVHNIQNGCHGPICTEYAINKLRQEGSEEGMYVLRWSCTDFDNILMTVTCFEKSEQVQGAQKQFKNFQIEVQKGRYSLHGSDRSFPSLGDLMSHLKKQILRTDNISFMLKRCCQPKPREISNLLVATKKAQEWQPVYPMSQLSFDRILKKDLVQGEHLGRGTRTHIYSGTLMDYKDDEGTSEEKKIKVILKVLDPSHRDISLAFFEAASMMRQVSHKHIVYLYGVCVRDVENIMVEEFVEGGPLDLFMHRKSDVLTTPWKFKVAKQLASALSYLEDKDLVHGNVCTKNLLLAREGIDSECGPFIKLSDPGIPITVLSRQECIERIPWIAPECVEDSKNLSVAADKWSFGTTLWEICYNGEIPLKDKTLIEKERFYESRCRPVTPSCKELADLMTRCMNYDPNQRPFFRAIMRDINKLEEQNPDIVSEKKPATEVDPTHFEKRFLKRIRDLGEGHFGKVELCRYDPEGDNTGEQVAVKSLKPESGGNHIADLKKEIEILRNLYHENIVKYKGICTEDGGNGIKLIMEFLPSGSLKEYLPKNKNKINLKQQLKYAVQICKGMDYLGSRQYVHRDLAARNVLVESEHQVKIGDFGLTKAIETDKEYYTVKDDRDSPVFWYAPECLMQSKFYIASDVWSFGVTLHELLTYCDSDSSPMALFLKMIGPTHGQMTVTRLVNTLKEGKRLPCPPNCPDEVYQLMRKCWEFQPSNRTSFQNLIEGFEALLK
In short: (§1)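 Compounds were pre-incubated for 15 min at room temperature with gel-filtered Jurkat cell lysate supplemented with 20 mM MnCl2, after which the acyl phosphate ATP probe AX9989 was added at 5 μM final. Labeled active-site peptides were enriched after tryptic digestion and measured by LC/MS, with percent inhibition taken relative to samples without compound.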

ACK = biological target: T2, ACK (Homo sapiens, UniProt Q07912); assay: Probe-based (AX9989) kinase profiling in Jurkat lysate: ACK; assay type: binding; conditions: read-out: Kinase inhibition % at indicated screening concentration: ACK; for inhibition at 1 µM: screening concentration 1.0 μM; for inhibition at 0.1 µM: screening concentration 0.1 μM
T2 construct: screened for activity against several kinases in Jurkat cells; endogenous in cells; host or cells: Jurkat cell lysate
T2 sequence (Q07912 whole entry): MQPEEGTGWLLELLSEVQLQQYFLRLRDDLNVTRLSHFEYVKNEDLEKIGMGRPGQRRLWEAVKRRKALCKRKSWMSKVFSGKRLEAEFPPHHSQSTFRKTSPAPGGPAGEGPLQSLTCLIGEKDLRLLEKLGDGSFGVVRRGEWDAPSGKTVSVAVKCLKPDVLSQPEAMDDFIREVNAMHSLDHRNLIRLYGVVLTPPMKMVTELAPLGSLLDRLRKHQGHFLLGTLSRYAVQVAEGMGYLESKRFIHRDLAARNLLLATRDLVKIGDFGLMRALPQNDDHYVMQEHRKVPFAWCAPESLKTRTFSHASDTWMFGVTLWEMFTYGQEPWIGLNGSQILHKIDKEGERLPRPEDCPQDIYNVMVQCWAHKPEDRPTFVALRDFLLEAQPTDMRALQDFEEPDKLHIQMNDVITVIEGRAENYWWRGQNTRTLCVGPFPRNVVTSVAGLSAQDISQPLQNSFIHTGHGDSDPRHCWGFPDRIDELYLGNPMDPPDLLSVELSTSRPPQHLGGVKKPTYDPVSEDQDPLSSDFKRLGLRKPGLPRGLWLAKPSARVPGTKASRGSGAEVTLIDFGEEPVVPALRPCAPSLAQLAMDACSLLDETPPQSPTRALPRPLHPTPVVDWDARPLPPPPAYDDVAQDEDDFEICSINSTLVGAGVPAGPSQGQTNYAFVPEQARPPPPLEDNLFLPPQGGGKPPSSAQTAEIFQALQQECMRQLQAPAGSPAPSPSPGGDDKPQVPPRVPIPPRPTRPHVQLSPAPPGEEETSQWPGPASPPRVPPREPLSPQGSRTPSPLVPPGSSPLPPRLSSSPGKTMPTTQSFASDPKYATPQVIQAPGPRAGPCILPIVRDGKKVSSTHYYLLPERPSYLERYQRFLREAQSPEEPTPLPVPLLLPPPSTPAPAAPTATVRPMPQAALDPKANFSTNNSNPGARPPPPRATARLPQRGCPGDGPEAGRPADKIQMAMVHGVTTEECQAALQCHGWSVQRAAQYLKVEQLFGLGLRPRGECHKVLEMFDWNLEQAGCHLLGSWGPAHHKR
In short: as §1

AurB or AurC = assay: Probe-based (AX9989) kinase profiling in Jurkat lysate: AurB or AurC; assay type: binding
In short: as §1

ERK5 = biological target: T3, ERK5 (Homo sapiens, UniProt Q13164); assay: Probe-based (AX9989 acyl phosphate ATP probe) kinase profiling in Jurkat lysate: ERK5; assay type: binding; conditions: for IC50: calculated from percent inhibition of AX9989 labeling and the screening concentration, Jurkat lysate; for inhibition at 1 µM: screening concentration 1.0 μM; for inhibition at 1 µM / inhibition at 0.1 µM: read-out: Kinase inhibition % at indicated screening concentration: ERK5; for inhibition at 0.1 µM: screening concentration 0.1 μM
T3 construct: screened for activity against several kinases in Jurkat cells; endogenous in cells; host or cells: Jurkat cell lysate
T3 sequence (Q13164 whole entry): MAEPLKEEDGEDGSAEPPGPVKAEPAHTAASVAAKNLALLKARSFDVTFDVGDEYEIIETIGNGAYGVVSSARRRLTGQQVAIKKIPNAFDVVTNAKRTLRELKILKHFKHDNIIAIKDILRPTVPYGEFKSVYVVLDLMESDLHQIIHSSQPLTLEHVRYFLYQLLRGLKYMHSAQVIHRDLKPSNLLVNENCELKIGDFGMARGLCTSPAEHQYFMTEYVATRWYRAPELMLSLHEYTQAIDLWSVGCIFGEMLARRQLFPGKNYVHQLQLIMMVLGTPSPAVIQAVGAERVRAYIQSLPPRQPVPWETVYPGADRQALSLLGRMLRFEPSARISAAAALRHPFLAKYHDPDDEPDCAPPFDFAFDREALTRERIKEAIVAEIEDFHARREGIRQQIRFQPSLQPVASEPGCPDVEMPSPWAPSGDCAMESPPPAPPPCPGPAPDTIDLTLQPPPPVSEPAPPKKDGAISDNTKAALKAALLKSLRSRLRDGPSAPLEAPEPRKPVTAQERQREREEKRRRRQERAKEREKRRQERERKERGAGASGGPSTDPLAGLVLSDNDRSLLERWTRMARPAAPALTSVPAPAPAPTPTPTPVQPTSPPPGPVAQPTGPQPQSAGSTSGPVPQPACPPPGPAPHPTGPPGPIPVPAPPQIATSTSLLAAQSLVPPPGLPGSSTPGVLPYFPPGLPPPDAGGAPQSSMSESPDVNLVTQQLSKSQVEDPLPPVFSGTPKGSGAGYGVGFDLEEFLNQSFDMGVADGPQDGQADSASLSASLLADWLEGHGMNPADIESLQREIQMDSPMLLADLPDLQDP
In short: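 Gel-filtered Jurkat lysate (5 mg/ml, 20 mM MnCl2) preincubated 15 min at room temperature with compound, then labelled with 5 μM AX9989 acyl phosphate ATP probe. Probe-labelled ERK5 active-site peptides quantified by LC/MS after trypsin digestion and streptavidin capture; IC50 calculated from percent inhibition at the screening concentration.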

human PBMCs = assay: Human PBMC TNF-α response to endotoxin (ELISA); assay type: cell-based; conditions: 0.1 μg/ml LPS 16 h, read-out: EC50 for the inhibition of the human PBMC TNF-α response to endotoxin, ave. ± S.D.
In short: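 PBMCs at 2e6 cells/ml in RPMI 1640 with 10% charcoal-dextran-treated FBS were pre-treated 1 h at 37 °C with compound (4-point 1:5 dilution from 10 μM). Stimulation with 0.1 μg/ml E. coli 0111:B4 LPS for 16 h; TNF-α measured by ELISA (A450) in 25-fold diluted supernatant.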

ABL or ARG = assay: Probe-based (AX9989) kinase profiling in Jurkat lysate: ABL or ARG; assay type: binding
In short: as §1

SMILES | inhibition at 1 µM (JAK1) [%] | inhibition at 1 µM (ACK) [%] | Kinase inhibition % at indicated screening concentration: AurB or AurC (AurB or AurC; screening concentration 1.0 μM) | IC50 (ERK5) [nM] | inhibition at 1 µM (ERK5) [%] | EC50 (human PBMCs) [nM] | Kinase inhibition % at indicated screening concentration: ABL or ARG (ABL or ARG; screening concentration 1.0 μM) | inhibition at 0.1 µM (JAK1) [%] | inhibition at 0.1 µM (ACK) [%] | Kinase inhibition % at indicated screening concentration: AurB or AurC (AurB or AurC; screening concentration 0.1 μM) | inhibition at 0.1 µM (ERK5) [%] | Kinase inhibition % at indicated screening concentration: ABL or ARG (ABL or ARG; screening concentration 0.1 μM)
CCOc1cc(C(=O)NCC2CC2)ccc1Nc1cc2c(cn1)N(C)C(=O)c1ccccc1N2C [Compound 57] | ≤ 35 | ≤ 35 | E (E is ≦35%) | 101 to 500 | 50 to 75 | 1080 | E (E is ≦35%) | – | – | – | – | –
CCOc1cc(C(=O)N2CCC(N3CCN(C)CC3)CC2)ccc1Nc1cc2c(cn1)N(C)C(=O)c1ccccc1N2C [Compound 61] | ≤ 35 | ≤ 35 | E (E is ≦35%) | 50 to 100 | > 90 | 890 ± 290 | E (E is ≦35%) | – | – | – | – | –
CCOc1cc(C(=O)N2CCNCC2)ccc1Nc1cc2c(cn1)N(C)C(=O)c1ccccc1N2C [Compound 62] | ≤ 35 | ≤ 35 | E (E is ≦35%) | ≤ 50 | > 90 | 720 | E (E is ≦35%) | – | – | – | – | –
CCOc1cc(C(=O)N2CCC(OC)CC2)ccc1Nc1cc2c(cn1)N(C)C(=O)c1ccccc1N2C [Compound 63] | ≤ 35 | ≤ 35 | E (E is ≦35%) | 50 to 100 | > 90 | 870 | E (E is ≦35%) | – | – | – | – | –
CN1C(=O)c2ccccc2N(C)c2cc(NC3CCC(C(=O)NC4CCOCC4)CC3)ncc21 (centres unmarked) [Compound 64] | ≤ 35 | ≤ 35 | E (E is ≦35%) | 101 to 500 | 75 to 90 | 3170 | E (E is ≦35%) | – | – | – | – | –
CCOc1cc(C(=O)N2CCC(N3CCN(C)CC3)CC2)ccc1Nc1cc2c(cn1)N(C)C(=O)c1occc1N2C [Compound 65] | – | – | – | ≤ 50 | – | 460 | – | ≤ 35 | ≤ 35 | E (E is ≦35%) | > 90 | E (E is ≦35%)
CCOc1cc(C(=O)NCCO)ccc1Nc1cc2c(cn1)N(C)C(=O)c1ccccc1N2C [Compound 66] | ≤ 35 | ≤ 35 | E (E is ≦35%) | > 500 | 50 to 75 | 1330 | E (E is ≦35%) | – | – | – | – | –
CCOc1cc(C(=O)N2CC[C@@H](N(CC)CC)C2)ccc1Nc1cc2c(cn1)N(C)C(=O)c1occc1N2C [Compound 67] | – | – | – | ≤ 50 | – | 920 ± 180 | – | ≤ 35 | ≤ 35 | E (E is ≦35%) | > 90 | E (E is ≦35%)
CCOc1cc(C(=O)N[C@@H]2CCCOC2)ccc1Nc1cc2c(cn1)N(C)C(=O)c1ccccc1N2C [Compound 69] | ≤ 35 | ≤ 35 | E (E is ≦35%) | 101 to 500 | 50 to 75 | 1070 | E (E is ≦35%) | – | – | – | – | –
COc1cc(C(=O)N2CCC(N(C)C)C2)ccc1Nc1cc2c(cn1)N(C)C(=O)c1ccccc1N2C (centres unmarked) [Compound 70] | – | – | – | ≤ 50 | – | 2100 | – | ≤ 35 | ≤ 35 | E (E is ≦35%) | 50 to 75 | E (E is ≦35%)
CCOc1cc(C(=O)N2CCCNCC2)ccc1Nc1cc2c(cn1)N(C)C(=O)c1ccccc1N2C [Compound 71] | ≤ 35 | ≤ 35 | E (E is ≦35%) | ≤ 50 | > 90 | 780 | E (E is ≦35%) | – | – | – | – | –
